Test results published in publication PMC12088830 (Xenobiotica; the fate of foreign compounds in biological …, 2021).

What was measured:
[1] = system: OATP4C1; assay: Protein expression; assay type: cell-based, human; conditions: for Effect on OATP4C1 protein expression: normal serum
[2] = system: SLCO4C1; assay: Gene expression; assay type: cell-based, human; conditions: uraemic serum 24 h, then 240 nM for six days
[3] = system: CYP24A1; assay: Gene expression
[4] = system: hPTECs; assay: Viability assay; assay type: cell-based, human
[5] = system: P-gp and MRP4; conditions: Caco-2 cells; 3 day treatment, 100 nM; ref Maeng et al 2012; cited from earlier work
[6] = system: CYP24A1; conditions: HepG2 cells; 4 nM dose; ref Horvath et al 2012; cited from earlier work
[7] = system: CYP2R1; assay: Gene expression; conditions: for CYP2R1 mRNA expression compared to normal serum + VEH: normal serum 24 h; for CYP2R1 mRNA expression relative to VEH + normal serum: uraemic serum 24 h
[8] = system: CYP2R1; assay: Protein expression; assay type: cell-based, human
[9] = system: ABCB1; assay: Gene expression; assay type: cell-based, human
[10] = system: P-gp; assay: Protein expression; assay type: cell-based, human; conditions: 240 nM for six days
[11] = system: hPTEC monolayer
[12] = in vitro; conditions: human
[13] = normal serum 24 h, then 100 nM for six days
[14] = normal serum 24 h, then 240 nM for six days
[15] = uraemic serum 24 h, then 100 nM for six days

## C=C1/C(=C\C=C2/CCC[C@]3(C)[C@@H]([C@H](C)CCCC(C)(C)O)CC[C@@H]23)C[C@@H](O)C[C@@H]1O [1,25-VitD3, calcitriol]
[1]; 240 nM for six days
  Decrease in OATP4C1 protein expression relative to normal serum + VEH: 54%
[1]; 100 nM for six days
  Effect on OATP4C1 protein expression: no effect
[2]
  SLCO4C1 mRNA expression compared to normal serum + VEH: 3.3 fold
[3]; [13]
  CYP24A1 mRNA expression compared to normal serum + VEH: 8706 fold
[3]; [14]
  CYP24A1 mRNA expression compared to normal serum + VEH: 9483 fold
[3]; [15]
  CYP24A1 mRNA expression compared to normal serum + VEH: 4967 fold
[3]; uraemic serum 24 h, then 240 nM for six days
  CYP24A1 mRNA expression compared to normal serum + VEH: 5343 fold
[4]; uraemic serum 24 h pre-treatment, then 100 nM and 240 nM for six days
  Effect on increasing cell viability relative to VEH: no significant effects
[5]
  Effect on P-gp and MRP4 transport activity (basolateral to apical transport of adefovir dipivoxil): Increased P-gp and MRP4 transport activity
[6]
  CYP24A1 expression increase: 5,300 fold
[7]; then 240 nM for six days
  CYP2R1 mRNA expression compared to normal serum + VEH: 4.7 fold
  CYP2R1 mRNA expression relative to VEH + normal serum: 4.0 fold
[7]; then 100 nM for six days
  CYP2R1 mRNA expression relative to VEH + normal serum: 4.8 fold
[8]; 100 nM for six days
  Decrease in CYP2R1 protein expression under uraemic conditions compared to the same treatment with normal serum: 38%
[8]; 240 nM for six days
  Decrease in CYP2R1 protein expression under uraemic conditions compared to the same treatment with normal serum: 64%
[9]; [13]
  ABCB1 mRNA expression compared to normal serum + VEH: 8.8 fold
[9]; [14]
  ABCB1 mRNA expression compared to normal serum + VEH: 7.6 fold
[9]; [15]
  ABCB1 mRNA expression compared to normal serum + VEH: 10 fold
[10]
  Increase in P-gp protein expression with uraemic serum compared to the same treatment with normal serum: 1.44 fold
[11]; 240 nM for six days, normal or uraemic serum
  Effect on efflux ratio of [3H]digoxin: did not have a significant effect

## C=C1CC[C@H](O)C/C1=C/C=C1\CCC[C@]2(C)[C@@H]([C@H](C)CCCC(C)C)CC[C@@H]12 [VitD3, cholecalciferol]
[1]; 240 nM for six days
  Effect on OATP4C1 protein expression: no effect
[4]; normal or uraemic serum, 100 or 240 nM for six days
  Effect on cell viability: no significant effects
[7]; 100 nM for six days
  Increase in CYP2R1 mRNA expression under uraemic conditions compared to normal serum (same treatment): 45%
[7]; then 240 nM for six days
  CYP2R1 mRNA expression compared to normal serum + VEH: 3.6 fold
[7]; then 100 nM for six days
  CYP2R1 mRNA expression relative to VEH + normal serum: 3.1 fold
[9]; 100 or 240 nM for six days, normal or uraemic serum
  Effect on ABCB1 mRNA expression: no effect

## C[C@H]1O[C@@H](O[C@H]2[C@@H](O)C[C@H](O[C@H]3[C@@H](O)C[C@H](O[C@H]4CC[C@@]5(C)[C@H](CC[C@@H]6[C@@H]5C[C@@H](O)[C@]5(C)[C@@H](C7=CC(=O)OC7)CC[C@]65O)C4)O[C@@H]3C)O[C@@H]2C)C[C@H](O)[C@@H]1O [[^3H]digoxin, digoxin]
[12]
  Papp A→B at 33.5 μM: 3.9 ± 0.14 ×10⁻⁶ cm/s
  Papp A→B at 6 h, 33.5 μM: 4.1 ± 0.27 ×10⁻⁶ cm/s
[11]; one hour post digoxin dosing, normal serum + VEH
  Digoxin transport in the B→A direction: 29.9 ± 2.4%
